The nature of data set [1]: Cytotoxicity in un-infected human HeLa Rh cells assessed as reduction in cell viability incubated for 3 days by MTT assay. The data set is classed as cell-based. A general note: Tetrazolium dyes change colour on reduction, which living cells bring about.
In the next data set the test system is rhinovirus B14. The experiment in a line: Antiviral activity against Human rhinovirus B14 infected in human HeLa Rh cells assessed as protection against virus induced cytopathic effect after 3 days in presence of 10% inactivated FBS by MTT assay. It counts as functional, organism-based. Conditions: Rhinovirus B, 72 h. For orientation: Damage to the host cells serves as the signal in cytopathic effect assays.

Data set [2] in a line: Selectivity index, ratio of CC50 for un-infected human HeLa Rh cells to EC50 for Human rhinovirus B14 infected in human HeLa Rh cells. It counts as toxicity, cell-based. Conditions: read-out: Ratio CC50/EC50.

`COc1cc(CC(O)c2ccc(C#N)cc2)c([N+](=O)[O-])cc1OC` (stereo not drawn): in data set [1], the CC50 at 72 h came out at 178 µM. Moreover, the EC50 in the data set on rhinovirus B14 came out at 2300 nM. Besides, the selectivity ratio in data set [2] came to 77.3.

Consider `COc1cc(CC(O)c2cccnc2)c([N+](=O)[O-])cc1OC` (stereo not drawn), for which the CC50 at 72 h in data set [1] is above 263 µM. For the same compound, the EC50 in the data set on rhinovirus B14 is 2000 nM. Besides, in data set [2], the selectivity ratio is above 131.

For the compound `COc1cc(C[C@@H](O)c2ccc(C#N)cc2)c([N+](=O)[O-])cc1OC`, the CC50 at 72 h in data set [1] stood at 178 µM. The EC50 in the data set on rhinovirus B14 is 10600 nM. Also, the selectivity ratio in data set [2] worked out at 16.8.

As to `COc1cc(CC(O)c2ccc(N3CCNCC3)cc2)c([N+](=O)[O-])cc1OC` (stereo not drawn), the CC50 at 72 h in data set [1] was above 258 µM. In addition, the EC50 in the data set on rhinovirus B14 came out at 238000 nM.

On to `COc1cc(CC(O)c2ccc(-n3cncn3)cc2)c([N+](=O)[O-])cc1OC` (stereo not drawn), for which, in data set [1], the CC50 at 72 h was above 271 µM. In the data set on rhinovirus B14, the EC50 amounted to 920 nM. Further, the selectivity ratio in data set [2] is above 295.

With `COc1cc(C[C@@H](O)c2ccc(C(F)(F)F)cc2)c([N+](=O)[O-])cc1OC`, the CC50 at 72 h in data set [1] came to 13.9 µM. Besides, the EC50 in the data set on rhinovirus B14 is above 200000 nM.

Consider `COc1cc(C[C@H](O)c2ccc(-n3cncn3)cc2)c([N+](=O)[O-])cc1OC`, for which, in data set [1], the CC50 at 72 h is above 271 µM. In the data set with rhinovirus B14, the EC50 came to 340 nM. The selectivity ratio in data set [2] is above 797.

`COc1cc(CC(O)c2ccc(-c3cnn(C)c3)cc2)c([N+](=O)[O-])cc1OC` (stereo not drawn): the cytotoxic concentration (CC50) at 72 h in data set [1] amounted to 17.4 µM. Moreover, the EC50 in the data set with rhinovirus B14 is above 270000 nM.

Regarding `COc1cc(CC(O)c2ccc(N3CCCCC3)cc2)c([N+](=O)[O-])cc1OC` (stereo not drawn), the CC50 at 72 h in data set [1] came to 53.9 µM. Besides, in the data set on rhinovirus B14, the EC50 came out at 1880 nM. Also, the selectivity ratio in data set [2] was found to be 28.7.

As for `COc1cc(C[C@@H](O)c2ccc(-c3cn[nH]c3)cc2)c([N+](=O)[O-])cc1OC`, in data set [1], the CC50 at 72 h was above 271 µM. For the same compound, the EC50 in the data set on rhinovirus B14 was 35600 nM. The selectivity ratio in data set [2] is above 7.74.

Take `COc1cc(C[C@H](O)c2cccnc2)c([N+](=O)[O-])cc1OC`: in data set [1], the CC50 at 72 h is above 200 µM. Also, the EC50 in the data set with rhinovirus B14 is 590 nM. In addition, in data set [2], the selectivity ratio was above 339.

`Cc1cc(CCCOc2c(C)cc(-c3noc(C(F)(F)F)n3)cc2C)on1` [PLECONARIL]: the CC50 at 72 h in data set [1] was above 131 µM. Besides, the selectivity ratio in data set [2] was above 437.

As for `COc1cc(CC(O)c2ccc(-c3cc(C(F)(F)F)nn3C)cc2)c([N+](=O)[O-])cc1OC` (stereo not drawn), the CC50 at 72 h in data set [1] is 12.1 µM. For the same compound, the EC50 in the data set with rhinovirus B14 was above 222000 nM.

Take `COc1cc(CC(O)c2ccc(-n3cccn3)cc2)c([N+](=O)[O-])cc1OC` (stereo not drawn): the CC50 at 72 h in data set [1] was above 271 µM. Also, the EC50 with rhinovirus B14 is 580 nM. Further, in data set [2], the selectivity ratio was above 467.

With `COc1cc(CC(O)c2ccc(-c3ccco3)cc2)c([N+](=O)[O-])cc1OC` (stereo not drawn), in data set [1], the CC50 at 72 h turned out to be 32 µM. In addition, the EC50 in the data set with rhinovirus B14 was 610 nM. Also, in data set [2], the selectivity ratio is 52.5.

In the case of `COc1cc(CC(O)c2ccncc2)c([N+](=O)[O-])cc1OC` (stereo not drawn), the CC50 at 72 h in data set [1] is above 263 µM. For the same compound, the EC50 in the data set with rhinovirus B14 came to 3400 nM. Besides, in data set [2], the selectivity ratio is above 77.

`COc1cc(CC(O)c2ccc(-c3ccsc3)cc2)c([N+](=O)[O-])cc1OC` (stereo not drawn): in data set [1], the CC50 at 72 h was found to be 11.5 µM. For the same compound, the EC50 in the data set on rhinovirus B14 came out at 540 nM. Further, the selectivity ratio in data set [2] worked out at 21.3.

As for `COc1cc(C[C@H](O)c2ccc(C#N)cc2)c([N+](=O)[O-])cc1OC`, in data set [1], the CC50 at 72 h is 178 µM. Also, the EC50 with rhinovirus B14 was determined as 260 nM. The selectivity ratio in data set [2] is 685.

Regarding `COc1cc(CC(O)c2ccc(N3CCOCC3)cc2)c([N+](=O)[O-])cc1OC` (stereo not drawn), the CC50 at 72 h in data set [1] was determined as 193 µM. In the data set with rhinovirus B14, the EC50 turned out to be 11700 nM. For the same compound, the selectivity ratio in data set [2] turned out to be 16.5.

For the compound `COc1cc(CC(O)c2ccc(-c3ccc(C(F)(F)F)nc3)cc2)c([N+](=O)[O-])cc1OC` (stereo not drawn), the CC50 at 72 h in data set [1] was determined as 152 µM. In addition, in the data set with rhinovirus B14, the EC50 was 8960 nM. Further, the selectivity ratio in data set [2] was determined as 16.9.

In the case of `COc1cc(C[C@@H](O)c2ccc(-n3cncn3)cc2)c([N+](=O)[O-])cc1OC`, in data set [1], the CC50 at 72 h is above 271 µM. Further, the EC50 with rhinovirus B14 was above 50000 nM.

For the compound `COc1cc(C[C@H](O)c2ccncc2)c([N+](=O)[O-])cc1OC`, the CC50 at 72 h in data set [1] is above 200 µM. The EC50 with rhinovirus B14 stood at 1160 nM. Moreover, the selectivity ratio in data set [2] is above 172.

Turning to `CCOC(=O)N1CCN(c2ccc(C(O)Cc3cc(OC)c(OC)cc3[N+](=O)[O-])cc2)CC1` (stereo not drawn), the CC50 at 72 h in data set [1] stood at 33.8 µM. Moreover, in the data set with rhinovirus B14, the EC50 amounted to 18100 nM. In data set [2], the selectivity ratio stood at 1.9.

Consider `COc1cc(C[C@H](O)c2ccc(C(F)(F)F)cc2)c([N+](=O)[O-])cc1OC`, for which the CC50 at 72 h in data set [1] came to 41.8 µM. Moreover, the EC50 with rhinovirus B14 turned out to be 460 nM. For the same compound, the selectivity ratio in data set [2] amounted to 90.8.

Regarding `COc1cc(CC(O)c2ccc(N3CCCC3)cc2)c([N+](=O)[O-])cc1OC` (stereo not drawn), the CC50 at 72 h in data set [1] was above 269 µM. Besides, the EC50 in the data set with rhinovirus B14 is 1940 nM. Moreover, in data set [2], the selectivity ratio was above 139.

On to `COc1cc(CC(O)c2ccc(-c3cn[nH]c3)cc2)c([N+](=O)[O-])cc1OC` (stereo not drawn), for which the CC50 at 72 h in data set [1] is above 271 µM. Further, in the data set with rhinovirus B14, the EC50 is 760 nM. Besides, in data set [2], the selectivity ratio is above 356.

For `COc1cc(CC(O)c2ccc(-c3cncnc3)cc2)c([N+](=O)[O-])cc1OC` (stereo not drawn), in data set [1], the CC50 at 72 h is above 271 µM. Further, the EC50 with rhinovirus B14 was 2220 nM. The selectivity ratio in data set [2] is above 122.

In the case of `COc1cc(C[C@@H](O)c2ccc(-n3cccn3)cc2)c([N+](=O)[O-])cc1OC`, the CC50 at 72 h in data set [1] was above 271 µM. Moreover, the EC50 with rhinovirus B14 came out at 42000 nM. In data set [2], the selectivity ratio was above 6.5.

On to `COc1cc(C[C@H](O)c2ccc(-n3cccn3)cc2)c([N+](=O)[O-])cc1OC`, for which, in data set [1], the CC50 at 72 h was above 271 µM. In addition, in the data set with rhinovirus B14, the EC50 was 350 nM. Further, the selectivity ratio in data set [2] is above 774.

Take `COc1cc(C[C@H](O)c2ccc(-c3cn[nH]c3)cc2)c([N+](=O)[O-])cc1OC`: in data set [1], the half-maximal cytotoxic concentration (CC50) at 72 h was above 271 µM. The EC50 with rhinovirus B14 was 250 nM. Further, the selectivity ratio in data set [2] is above 1080.

As for `COc1cc(C[C@@H](O)c2cccnc2)c([N+](=O)[O-])cc1OC`, the CC50 at 72 h in data set [1] is above 200 µM. For the same compound, in the data set with rhinovirus B14, the EC50 is above 200000 nM.

For `COc1cc(CC(O)c2ccc(N3CCC(C)CC3)cc2)c([N+](=O)[O-])cc1OC` (stereo not drawn), the CC50 at 72 h in data set [1] is above 250 µM. In the data set with rhinovirus B14, the EC50 came out at 1910 nM. Moreover, the selectivity ratio in data set [2] was above 131.

In the case of `COc1cc(C[C@@H](O)c2ccncc2)c([N+](=O)[O-])cc1OC`, in data set [1], the CC50 at 72 h is 55.2 µM. In the data set with rhinovirus B14, the EC50 was above 200000 nM.

As for `COc1cc(CC(O)c2ccc(C(F)(F)F)cc2)c([N+](=O)[O-])cc1OC` (stereo not drawn), the CC50 at 72 h in data set [1] turned out to be 49.7 µM. The EC50 with rhinovirus B14 is 2000 nM.

Usually CC50 stands for the concentration at which the toxic effect on the cells reaches its halfway point. For orientation: EC50 means the concentration needed to bring the measured effect to its halfway point.
